For one test, the target named is T1, GST-PPARG-LBD (Homo sapiens, UniProt P37231).
T1 construct: A mixture of 5 nM GST-PPARG-LBD; purchased Invitrogen
T1 sequence (P37231 238-503 limits assumed): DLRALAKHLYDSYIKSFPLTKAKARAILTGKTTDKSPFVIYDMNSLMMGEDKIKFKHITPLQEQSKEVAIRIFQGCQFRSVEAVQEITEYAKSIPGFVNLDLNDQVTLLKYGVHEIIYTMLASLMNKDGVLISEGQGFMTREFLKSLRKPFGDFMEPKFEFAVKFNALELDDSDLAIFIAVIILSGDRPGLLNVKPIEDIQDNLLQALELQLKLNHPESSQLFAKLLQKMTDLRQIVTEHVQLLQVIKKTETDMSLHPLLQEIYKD
Kind of test: Lanthascreen PPARG competitive binding assay (Invitrogen). As for the experimental part: The assay was performed according to manufacturer protocol. A mixture of 5 nM GST-PPARG-LBD, 5 nM Tb-GST-antibody, 5 nM Fluormone Pan-PPAR. Green, and serial dilutions of the experimental compound, beginning at 10 μM downwards, was added to wells of black 384-well low-volume plates (Greiner) to a total volume of 18 μL. All dilutions were made in TR-FRET assay buffer C. DMSO at 2% final concentration was used as a no-ligand control. Experiment was performed in triplicate, and incubated for 2 hours in the dark prior to assay read in Perkin Elmer ViewLux ultra HTS microplate reader. FRET signal was measured by excitation at […] and emission at 520 nm for fluorcscein and 490 nm for terbium. Fold change over DMSO was calculated using GraphPad Prism Software (La Jolla, Calif.) by calculating 520 nm/490 nm ratio. Graphs were plotted as fold change of FRET signal for compound treatment over DMSO-only control.

In test [1] the test system is PPARG (murine PPARg2 or full-length human PPARg co-transfected into COS-1 cells). Kind of test: Cell-based transactivation assay (3x PPRE-luciferase reporter, COS-1 cells). The conditions noted are these: PPRE::Luc reporter. As to the method: PPRE is a DNA that contains a binding site for PPARG; thus PPRE is a PPAR response element, used herein as a promoter reporter. The binding site is a DR1 response element with the sequence [NT] repeated 3 times in tandem and then fused to a construct for luciferase. Thus, PPRE is the basis of the cell based transactivation assay described below. The plasmid DNA is co-transfected along with a plasmid for PPARG into COS-1 cells. After an overnight incubation, cells are treated with DMSO or compounds. […] Transfected cells were plated in white Perkin Elmer 384-well plates and incubated 4 hours. […] After 18 hour incubation, treated cells were developed with Brite Lite Plus (Perkin Elmer) and read in 384-well Luminescence Perkin Elmer EnVision Multilabel plate reader. Graphs were plotted in triplicate in GraphPad Prism Software as fold change of treated cells over DMSO control cells.

[2] abbreviates: Table 3, Lantha 1, read-out: IC50 (nM) Lantha 1.
Where [3] appears, read: Table 3, Lantha 2, read-out: IC50 (nM) Lantha 2.

Like-named read-outs stand apart in the source and are kept apart here.

Turning to `CC(C)c1nn(Cc2ccc(-c3ccccc3C(=O)O)cc2)c2ccc(C(=O)N[C@@H](C)c3ccc(Br)cc3)cc12` [compound 50], the values for the half-maximal inhibitory concentration (IC50) on GST-PPARG-LBD (setting [2]) and on GST-PPARG-LBD (setting [3]) were 19.9 nM and 15.2 nM, respectively.
As for `Cc1nn(Cc2ccc(-c3ccccc3C(=O)O)cc2)c2ccc(C(=O)NC3CCCCCC3)cc12` [compound 24], the IC50 on GST-PPARG-LBD (setting [2]) came out at 204 nM; at GST-PPARG-LBD (setting [3]), 176 nM.
Take `COC[C@H](C)NC(=O)c1ccc2c(c1)c(C)nn2Cc1ccc(-c2ccccc2C(=O)O)cc1` [compound 32]: the IC50 on GST-PPARG-LBD (setting [3]) came to 367 nM.
On to `COCCNC(=O)c1ccc2c(c1)c(C)nn2Cc1cccc(C#N)c1` [compound 58], for which, on GST-PPARG-LBD (setting [3]), the IC50 came out at 4770 nM.
The same measure, in the same setting: to `Cc1nn(Cc2ccc(-c3ccccc3C(=O)O)cc2)c2ccc(C(=O)N[C@H]3COc4ccccc4C3)cc12` [compound 33] belongs 235 nM.
For the molecule `COc1ccc(C(=O)n2c(C)c(Cc3cccc(O[C@@H](C)C(=O)O)c3)c3cc(OC(F)(F)F)ccc32)cc1` [MRL24], the “transactivation of the reporter relative to rosiglitazone response” value in test [1] was “about 25 % of rosiglitazone response”.
`Cc1nn(Cc2ccc(Cl)cc2)c2ccc(C(=O)N[C@@H](C)c3ccc(Br)cc3)cc12` [compound 53]: the IC50 at GST-PPARG-LBD (setting [3]) worked out at 1050 nM.
As to `CCOCCNC(=O)c1ccc2c(c1)c(C)nn2Cc1ccc(-c2ccccc2C(=O)O)cc1` [compound 36], the IC50 on GST-PPARG-LBD (setting [2]) stood at 4420 nM; on GST-PPARG-LBD (setting [3]), 344 nM.
Regarding `Cc1nn(Cc2ccc(-c3ccccc3C(=O)O)cc2)c2ccc(C(=O)N[C@@H](C)c3ccc(Br)cc3)cc12` [compound 42], the IC50 on GST-PPARG-LBD (setting [2]) was 9.83 nM; on GST-PPARG-LBD (setting [3]), 2.8 nM.
For the molecule `CC[C@H](NC(=O)c1ccc2c(c1)c(C)nn2Cc1ccc(-c2ccccc2C(=O)O)cc1)c1ccccc1` [compound 43], the IC50 at GST-PPARG-LBD (setting [3]) was 13 nM.
For `CCC(NC(=O)c1ccc2c(c1)c(C(C)C)nn2Cc1ccc(-c2ccccc2C(=O)O)cc1)c1ccccc1` (centres unmarked) [compound 47], the results for the IC50 at GST-PPARG-LBD (setting [2]) and at GST-PPARG-LBD (setting [3]) were 1.85 nM and 0.681 nM, respectively.
Turning to `COCCCNC(=O)c1ccc2c(c1)c(C)nn2Cc1ccc(-c2ccccc2C(=O)O)cc1` [compound 37], the 50% inhibitory concentration (IC50) on GST-PPARG-LBD (setting [2]) came to 1820 nM; on GST-PPARG-LBD (setting [3]), 1740 nM.
For `Cc1nn(Cc2ccccc2C#N)c2ccc(C(=O)N[C@@H](C)c3ccc(Br)cc3)cc12` [compound 55], on GST-PPARG-LBD (setting [3]), the IC50 was found to be 32.2 nM.
Regarding `COCCNC(=O)c1ccc2c(c1)c(C)nn2Cc1ccc(-c2ccccc2C(=O)O)cc1` [compound 22], the IC50 is more than 100 nM on GST-PPARG-LBD (setting [2]) and 824 nM at GST-PPARG-LBD (setting [3]).
`CCCCNC(=O)c1ccc2c(c1)c(C)nn2Cc1ccc(-c2ccccc2C(=O)O)cc1` [compound 35]: the IC50 on GST-PPARG-LBD (setting [2]) turned out to be 76.3 nM; on GST-PPARG-LBD (setting [3]), 84.1 nM.
Regarding `Cc1ccc([C@H](C)NC(=O)c2ccc3c(c2)c(C)nn3Cc2ccc(-c3ccccc3C(=O)O)cc2)cc1` [compound 27], at GST-PPARG-LBD (setting [3]), the IC50 was found to be 31.8 nM.
Consider `Cc1nn(Cc2ccc(-c3ccccc3C(=O)O)cc2)c2ccc(C(=O)NC3CCC(C)CC3)cc12` (centres unmarked) [compound 25], for which the 50% inhibitory concentration (IC50) at GST-PPARG-LBD (setting [2]) was 255 nM; on GST-PPARG-LBD (setting [3]), 82.8 nM.
As to `Cc1nn(Cc2ccc(-c3ccccc3C(=O)O)cc2)c2ccc(C(=O)N[C@@H]3COc4ccccc4C3)cc12` [compound 34], on GST-PPARG-LBD (setting [3]), the IC50 is 147 nM.
On to `Cc1nn(Cc2ccc(-c3ccccc3C(=O)O)cc2)c2ccc(C(=O)N[C@H](C)C3CCCCC3)cc12` [compound 30], for which the IC50 at GST-PPARG-LBD (setting [3]) was found to be 21.6 nM.
As to `C=C(C)c1nn(Cc2ccc(-c3ccccc3C(=O)O)cc2)c2ccc(C(=O)NCCOC)cc12` [compound 51], the IC50 on GST-PPARG-LBD (setting [2]) turned out to be 120 nM; on GST-PPARG-LBD (setting [3]), 166 nM.
As to `Cc1nn(Cc2ccccn2)c2ccc(C(=O)N[C@@H](C)c3ccc(Br)cc3)cc12` [compound 57], the half-inhibitory concentration (IC50) at GST-PPARG-LBD (setting [3]) was 877 nM.
As to `Cc1nn(Cc2ccc(-c3ccccc3C(=O)O)cc2)c2ccc(C(=O)N[C@@H](C)c3cccc(C4CC4)c3)cc12` [compound 29], at GST-PPARG-LBD (setting [3]), the IC50 came out at 18.8 nM.
With `Cc1nn(Cc2ccc(-c3ccccc3C(N)=O)cc2)c2ccc(C(=O)N[C@@H](C)c3ccc(Br)cc3)cc12` [compound 39], the IC50 on GST-PPARG-LBD (setting [3]) is 16.1 nM.
`CCC(NC(=O)c1ccc2c(c1)c(C)nn2Cc1ccc(-c2ccccc2C(=O)O)cc1)c1ccccc1` (centres unmarked) [compound 28]: the IC50 at GST-PPARG-LBD (setting [3]) came to 0.579 nM.
As for `Cc1nn(Cc2ccccc2)c2ccc(C(=O)N[C@@H](C)c3ccc(Br)cc3)cc12` [compound 52], the figures for the half-maximal inhibitory concentration (IC50) on GST-PPARG-LBD (setting [2]) and on GST-PPARG-LBD (setting [3]) were 713 nM and 932 nM, respectively.
Take `Cc1nn(Cc2ccc(-c3ccccc3C(=O)O)cc2)c2ccc(C(=O)N[C@@H](C)C3CCCCC3)cc12` [compound 31]: the IC50 at GST-PPARG-LBD (setting [3]) was determined as 41.7 nM.
In the case of `Cc1nn(Cc2ccc(-c3ccccc3-c3nnn[nH]3)cc2)c2ccc(C(=O)N[C@@H](C)c3ccc(Br)cc3)cc12` [compound 41], on GST-PPARG-LBD (setting [3]), the IC50 worked out at 2.6 nM.
As for `CN(CCOc1ccc(CC2SC(=O)NC2=O)cc1)c1ccccn1` (centres unmarked) [rosiglitazone], the “activation of the PPRE reporter” value in test [1] is recorded as “about 5 fold”.
As for `Cc1nn(Cc2ccc(-c3ccccc3C(=O)O)cc2)c2ccc(C(=O)N[C@@H](C)c3cccc(C(C)C)c3)cc12` [compound 26], the IC50 on GST-PPARG-LBD (setting [2]) was 23.4 nM; on GST-PPARG-LBD (setting [3]), 94.8 nM.
Turning to `CC[C@H](NC(=O)c1ccc2c(c1)c(C(C)C)nn2Cc1ccc(-c2ccccc2C(=O)O)cc1)c1ccc(Br)cc1` [compound 49], the IC50 at GST-PPARG-LBD (setting [3]) was 0.119 nM.
Turning to `Cc1nn(Cc2cccc(O[C@H](C)C(=O)O)c2)c2ccc(C(=O)N[C@@H](C)c3ccc(Br)cc3)cc12` [compound 54], the concentration for half-maximal inhibition (IC50) on GST-PPARG-LBD (setting [3]) amounted to 21.6 nM.
In the case of `Cc1nn(Cc2ccc(C3(C(=O)O)CC3)cc2)c2ccc(C(=O)N[C@@H](C)c3ccc(Br)cc3)cc12` [compound 56], the IC50 on GST-PPARG-LBD (setting [3]) stood at 144 nM.
Consider `COCCNC(=O)c1ccc2c(c1)c(C(C)C)nn2Cc1ccc(-c2ccccc2C(=O)O)cc1` [compound 46], for which the figures for the IC50 on GST-PPARG-LBD (setting [2]) and at GST-PPARG-LBD (setting [3]) were 359 nM and 432 nM, respectively.
For the molecule `Cc1nn(Cc2ccc(-c3ccccc3C(=O)O)cc2)c2ccc(C(=O)NCC3CCC(C)CC3)cc12` (centres unmarked) [compound 38], the half-inhibitory concentration (IC50) came to 118 nM on GST-PPARG-LBD (setting [2]) and 82.8 nM on GST-PPARG-LBD (setting [3]).
For `Cc1nn(Cc2ccc(-c3ccccc3C#N)cc2)c2ccc(C(=O)N[C@@H](C)c3ccc(Br)cc3)cc12` [compound 40], the IC50 on GST-PPARG-LBD (setting [2]) came to 40.8 nM; at GST-PPARG-LBD (setting [3]), 37.7 nM.
`Cc1nn(Cc2ccc(-c3ccccc3C(=O)O)cc2)c2ccc(C(=O)NC3CCCCC3)cc12` [compound 23]: the IC50 at GST-PPARG-LBD (setting [2]) was determined as 560 nM; on GST-PPARG-LBD (setting [3]) it was 562 nM.
Regarding `CC(C)c1nn(Cc2ccc(-c3ccccc3C(=O)O)cc2)c2ccc(C(=O)NC3CCCC3)cc12` [compound 48], the IC50 at GST-PPARG-LBD (setting [2]) was 133 nM; at GST-PPARG-LBD (setting [3]), 259 nM.
`Cc1nn(Cc2ccc(-c3ccccc3C(=O)O)cc2)c2ccc(C(=O)NC3CCCC3)cc12` [compound 21]: the IC50 at GST-PPARG-LBD (setting [2]) is 11.5 nM; on GST-PPARG-LBD (setting [3]) it was 870 nM.
